For data set [1], the system named is lipid level in blood. As to the kind of experiment: Action on the lipid level in blood (rats on high cholesterol feed). As to conditions: Rattus norvegicus, relative to the control, oral 25 mg/kg/day, starved 24 hours after final administration; for change in vivo at 25 mg/kg/day: high density lipoprotein-cholesterol, read-out: HDL-Ch increase rate. Format: in vivo, Male Wistar strain rats. The protocol: Male Wistar strain rats with weights of about 200 g were given a high cholesterol feed containing 1 % cholesterol and 0.5 % cholic acid. Simultaneously, a suspension of a test compound in 5 % aq. gum arabic was orally administered in an amount of 25 mg/kg/day. After the final administration, the animals were starved for 24 hours and then evaluated for serum total cholesterol (TC), high density lipoprotein-cholesterol (HDL-Ch) and serum triglyceride (TG) content. The control group was orally given 5 % aq. solution of gum arabic. […] In Table 4, test compounds Nos. 1 to 11 correspond respectively to the hydrochlorides of the compounds of Examples 1 to 11.

Data set [2] in a line: in vivo. As to conditions: mouse. As to the method:
Acute toxicity was examined in the Litchfield and Wilcoxon's method where 10 ICR male mice were orally given a test compound.
The LD₅₀ of clofibrate was 1600 mg/kg.

The subject of data set [3] is hepatic parenchymal cells. The data set can be described thus: Action on incorporation of LDL (radioisotope-labeled LDL, primary culture). Format: cell-based, male Wistar strain rat. As to conditions: Rattus norvegicus; relative to the control (DMSO only); test compound 10 µg/ml, incubated 24 hours, then labeled LDL for 4 hours; read-out: incorporation ratio of LDL. The protocol: hepatic cells were separated from the liver of a male Wistar strain rat weighing about 200 g, and the hepatic parenchymal cells were incubated in primary culture. 48 hours thereafter, a solution of a test compound in dimethylsulfoxide (DMSO) (10 µg/ml) was added thereto and incubated for 24 hours. Then, a radioisotope-labeled low density lipoprotein (LDL) was added thereto, and incubation was continued for further 4 hours. The cells were washed with physiological saline and then lysed with sodium dodecyl sulfate (SDS), and their radioactivity was determined in a liquid scintillation counter. The control group was treated in the same manner as above except for the addition of DMSO only. […] In Table 5, the test compounds 1 to 11 correspond respectively to the hydrochlorides of the compounds of Examples 1 to 11.

Setting [4] is: serum total cholesterol, suspension in 5 % aq. gum arabic, read-out: TC decrease rate.
[5] abbreviates: serum triglyceride, read-out: TG decrease rate.

We go through four molecules from EP0666253A1, “N-t-BUTYLANILINE ANALOG AND LIPID LEVEL DEPRESSANT CONTAINING THE SAME” (priority 1992, dated 1994).

SMILES strings stand for the structures. Structures can show the parent of a compound that is named as a salt. Where two headings read alike, the source gives them in different places. Bounds are passed on as bounds.

Take `CCOC(=O)C(C)(C)Oc1ccc(Cl)cc1` [clofibrate]: in data set [1], the change in vivo at 25 mg/kg/day was -1.6%. Further, the inhibition in vivo at 25 mg/kg/day in data set [1] (setting [4]) is 1.2%; in data set [1] (setting [5]), -0.9%. This molecule came in with an LD50 in data set [2] (male, ICR, po) of 1600 mg/kg. The activation at 10 µg/mL in data set [3] was -10.5%.
For the molecule `CC(C)(C)N(c1ccc(Oc2ccccc2)cc1)S(C)(=O)=O` [compound of Reference Example 3, 4-(N-t-butyl)methanesulfonylaminodiphenyl ether], the change in vivo at 25 mg/kg/day in data set [1] is -0.7%. The results for the inhibition in vivo at 25 mg/kg/day in data set [1] (setting [4]) and in data set [1] (setting [5]) were 3.6% and -2.1%, respectively. Moreover, the activation at 10 µg/mL in data set [3] is -15.7%.
Take `CCN(CC)c1ccc(Sc2ccc(C)cc2)cc1` [compound of Reference Example 4, N,N-diethyl-4-(4-tolylthio)aniline]: the results for the inhibition in vivo at 25 mg/kg/day in data set [1] (setting [4]) and in data set [1] (setting [5]) were -16.2% and 30%, respectively.
Regarding `CC(C)(C)Nc1ccc(Sc2ccccc2)cc1` [test compound 1, 4-(t-butylamino)diphenylsulfide hydrochloride], in data set [1], the change in vivo at 25 mg/kg/day amounted to 39.4%. Besides, the inhibition in vivo at 25 mg/kg/day in data set [1] (setting [4]) was determined as 95.7%; in data set [1] (setting [5]), 48.5%. The LD50 in data set [2] (oral, 10 ICR male mice, read-out: LD₅₀) was above 5000 mg/kg. Moreover, the activation at 10 µg/mL in data set [3] turned out to be 65.3%.
